Measured values as given in patent US10975064B2, “RIP1 inhibitory compounds and methods for making and using the same” (Rigel Pharmaceuticals, Inc., priority 2018, dated 2021).

System: TNF-alpha induced hypothermia
Test: acute hypothermia mouse model
Type: in vivo
Settings: 15 mg/kg, oral gavage, C57BL/6 mice
Experimental: In this example, an acute hypothermia mouse model assay was used to evaluate the ability of compounds disclosed herein to inhibit TNF-alpha induced hypothermia. Female C57BL/6 mice are randomly grouped and weighed on Day-1. On the day of the study (Day 0), mice are administered vehicle or test article by oral gavage. Fifteen minutes after oral administration of test agents, each mouse is administered an intraperitoneal (IP) injection of solution containing recombinant human tumor necrosis factor alpha (TNF-a, 25.0 μg) and zVAD-FMK (200 μg). Body temperature is measured at hour zero (before IP injections) and every hour via rectal probe temperature measuring device. Three (3) hours after IP injections of TNF-a and zVAD/FMK, mice are euthanized by CO2 asphyxiation and blood is collected via cardiac puncture. Serum and plasma are harvested for determination of cytokine and compound levels, respectively. Separate groups of mice (satellite mice) are included for the determination of compound levels in plasma at the time of administration of TNFa/zVAD-FMK. (S)-5-benzyl-N-(5-methyl-4-oxo-2,3,4,5-tetrahydrobenzo[b][1,4]oxazepin-3-yl)-4H-1,2,4-triazole-3-carboxamide (WO 2014/125444), having a structure as illustrated below, was used as a comparative compound and was examined using the same assay protocol.

CN1C(=O)[C@@H](NC(=O)c2n[nH]c(Cc3ccccc3)n2)COc2ccc(N3CC4(CCOCC4)C3)cc21 [Compound I-5, (S)-5-benzyl-N-(5-methyl-4-oxo-7-(7-oxa-2-azaspiro[3.5]nonan-2-yl)-2,3,4,5-tetrahydrobenzo[b][1,4]oxazepin-3-yl)-1H-1,2,4-triazole-3-carboxamide]
inhibition of TNF-alpha induced hypothermia: 81%
